The text below walks through data of US20070117770A1, “Human ribosomal DNA (rDNA) and ribosomal RNA (rRNA) nucleic acids and uses thereof” (Cylene Pharmaceuticals, Inc., priority 2005, published 2007).

The target of one assay is MST2(h) (Homo sapiens, UniProt Q13188). As to the kind of experiment: Protein kinase inhibition assay. It is filed as biochemical. Particulars: read-out: percent residual activity of MST2(h). As for the experimental part:
(§1) Certain compounds were tested for activity in protein kinase inhibition assays. All substrates were dissolved and diluted to working stocks in de-ionized water, apart from histone H1 (10× working stock in 20 mM MOPS pH 7.0), PDKtide (10× working stock in 50 mM Tris pH 7.0) ATF2 (which is typically stored at a 20× working stock in 50 mM Tris pH 7.5, 150 mM NaCl, 0.1 mM EGTA, 0.03% Brij-35, 50% glycerol, 1 mM benzamidine, 0.2 mM PMSF and 0.1% R-mercaptoethanol), KKLNRTLSFAEPG (SEQ ID NO:203) and RRRLSFAEPG (SEQ ID NO:204) (50 mM HEPES pH 7.4) and GGEEEEYFELVKKKK (SEQ ID NO:205) (20 mM MOPS pH 7.0). All kinases were pre-diluted to a 10× working concentration prior to addition into the assay. The composition of the dilution buffer for each kinase is detailed below.
(§2) In a final reaction volume of 25 μl, MST2 (h) (5-10 mU) is incubated with 8 mM MOPS pH 7.0, 0.2 mM EDTA, 0.33 mg/ml myelin basic protein, 10 mM MgAcetate and [gamma-33P-ATP] (specific activity approx. 500 cpm/pmol, concentration as required). The reaction is initiated by the addition of the MgATP mix. After incubation for 40 minutes at room temperature, the reaction is stopped by the addition of 5 μl of a 3% phosphoric acid solution. 10 μl of the reaction is then spotted onto a P30 filtermat and washed three times for 5 minutes in 75 mM phosphoric acid and once in methanol prior to drying and scintillation counting.

Another assay has as its target EphA3(h) (Homo sapiens, UniProt P29320). As to the kind of experiment: Protein kinase inhibition assay. The assay is classed as biochemical. Particulars: read-out: percent residual activity of EphA3(h). How it is done: as §1
as §2, with “EphA3” for “MST2”, “0.1” for “0.33”, “poly(Glu, Tyr) 4:1,” for “myelin basic protein,”, “Filtermat A” for “P30 filtermat”

The next assay concerns the target PKA(b) (Bos taurus, UniProt P00517). In words: Protein kinase inhibition assay. The assay is classed as biochemical, bovine. Particulars: read-out: percent residual activity of PKA(b). As for the experimental part:
as §1
as §2, with “PKA (b)” for “MST2 (h)”, “30 μM LRRASLG (SEQ ID NO:209) (Kemptide),” for “0.33 mg/ml myelin basic protein,”, “[y-33P-ATP]” for “[gamma-33P-ATP]”, “50” for “75”

In the next assay the target is Fes(h) (Homo sapiens, UniProt P07332). As to the kind of experiment: Protein kinase inhibition assay. It is filed as biochemical. The conditions noted are these: read-out: percent residual activity of Fes(h). As for the experimental part: as §1
as §2, with “Fes” for “MST2”, “0.1” for “0.33”, “poly(Glu, Tyr) 4:1,” for “myelin basic protein,”, “[y-33P-ATP]” for “[gamma-33P-ATP]”, “Filtermat A” for “P30 filtermat”

Another assay concerns the target PKCβII(h) (Homo sapiens, UniProt P05771). As to the kind of experiment: Protein kinase inhibition assay. The conditions noted are these: read-out: percent residual activity of PKCβII(h). The assay is classed as biochemical. How it is done:
as §1
In a final reaction volume of 25 μl, PKCβII (h) (5-10 mU) is incubated with 20 mM HEPES pH 7.4, 0.03% Triton X-100, […], 0.1 mg/ml phosphatidylserine, 10 μg/ml diacylglycerol, 0.1 mg/ml histone H1, 10 mM MgAcetate and [gamma-33P-ATP] (specific activity approx. 500 cpm/pmol, concentration as required). The reaction is initiated by the addition of the MgATP mix. After incubation for 40 minutes at room temperature, the reaction is stopped by the addition of 5 μl of a 3% phosphoric acid solution. […]

Another assay has as its target T1, nucleolin/cMyc QP DNA (Homo sapiens, UniProt P19338).
T1 construct: without the N-terminal acidic stretches domain
In words: EMSA, nucleolin/QP ligand interaction. The assay is classed as binding. The conditions noted are these: nucleolin ~250 nM, 32P-labeled ligand 10 or 250 nM, 30 minutes (FIG. 1, FIG. 2). How it is done:
The following assays assessed effects of compounds on interactions between nucleolin and nucleic acid ligands capable of forming quadruplex (QP) and hairpin (HP) secondary structures. Nucleic acid ligands tested were a cMyc QP DNA having nucleotide sequence 5′-[…]-3′ (SEQ ID NO: 176) and a HP pre-rRNA region to which nucleolin binds, having the sequence 5′-[…]-3′ (SEQ ID NO: 177). In the assays, recombinant nucleolin (˜250 nM), which was fused to maltose binding protein and had the sequence under accession number NM_005381 without the N-terminal acidic stretches domain, was incubated with each of the two ^32P-labeled nucleic acid ligands (10 or 250 nM). Nucleolin and the nucleic acid ligand were incubated in the presence or absence of a test compound of Formula A-1, B-1, C-6 or C-7 in an incubation buffer (12.5 mM Tris, pH 7.6, 60 mM KCl, 1 mM MgCl2, 0.1 mM EDTA, 1 mM DTT, 5% glycerol, 0.1 mg/ml BSA) for 30 minutes at room temperature. Structures for A-1 and B-1 are shown above and structures for C-6 and C-7 are shown hereafter: [drawing 17] The resulting complexes were separated on a 6% DNA retardation gel using 0.5× TBE with 20 mM KCl as a running buffer (i.e., electrophoresis mobility shift assay (EMSA)).

T1 sequence (P19338 284-710 limits assumed): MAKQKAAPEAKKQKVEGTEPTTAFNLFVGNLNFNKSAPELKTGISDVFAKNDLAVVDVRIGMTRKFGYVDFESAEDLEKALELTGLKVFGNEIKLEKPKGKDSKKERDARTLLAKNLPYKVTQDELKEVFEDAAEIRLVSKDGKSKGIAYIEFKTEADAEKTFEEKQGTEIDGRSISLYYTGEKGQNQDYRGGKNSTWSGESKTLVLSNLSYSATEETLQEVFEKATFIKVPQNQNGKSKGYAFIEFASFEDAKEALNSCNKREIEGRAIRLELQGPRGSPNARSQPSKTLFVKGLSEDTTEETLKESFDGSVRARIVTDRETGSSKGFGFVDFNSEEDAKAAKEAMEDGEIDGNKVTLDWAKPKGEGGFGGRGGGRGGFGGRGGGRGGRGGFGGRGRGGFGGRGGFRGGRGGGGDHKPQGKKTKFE
Chain of Fes(h) (P07332 whole entry): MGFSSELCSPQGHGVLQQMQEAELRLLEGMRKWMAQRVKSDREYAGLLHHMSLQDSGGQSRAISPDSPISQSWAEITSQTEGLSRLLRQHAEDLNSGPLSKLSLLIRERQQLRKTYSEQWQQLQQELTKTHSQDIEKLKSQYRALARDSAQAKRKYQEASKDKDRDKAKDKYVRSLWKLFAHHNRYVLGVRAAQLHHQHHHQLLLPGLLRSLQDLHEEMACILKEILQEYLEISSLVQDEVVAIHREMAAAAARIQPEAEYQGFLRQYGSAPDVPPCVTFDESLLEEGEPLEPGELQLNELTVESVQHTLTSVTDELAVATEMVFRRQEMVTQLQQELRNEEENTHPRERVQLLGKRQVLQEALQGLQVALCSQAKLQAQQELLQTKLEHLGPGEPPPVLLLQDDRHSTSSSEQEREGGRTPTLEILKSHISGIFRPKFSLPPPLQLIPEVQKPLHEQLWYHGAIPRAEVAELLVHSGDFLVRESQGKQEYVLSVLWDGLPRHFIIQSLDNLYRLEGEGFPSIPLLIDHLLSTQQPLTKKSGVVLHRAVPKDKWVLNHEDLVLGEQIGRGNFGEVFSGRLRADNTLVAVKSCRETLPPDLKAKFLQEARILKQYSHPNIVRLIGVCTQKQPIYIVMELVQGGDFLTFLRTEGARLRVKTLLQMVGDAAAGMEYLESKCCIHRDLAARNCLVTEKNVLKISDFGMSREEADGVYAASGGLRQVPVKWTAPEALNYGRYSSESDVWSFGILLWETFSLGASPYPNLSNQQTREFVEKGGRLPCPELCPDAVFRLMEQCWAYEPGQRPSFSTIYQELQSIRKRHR
Chain of MST2(h) (Q13188 whole entry): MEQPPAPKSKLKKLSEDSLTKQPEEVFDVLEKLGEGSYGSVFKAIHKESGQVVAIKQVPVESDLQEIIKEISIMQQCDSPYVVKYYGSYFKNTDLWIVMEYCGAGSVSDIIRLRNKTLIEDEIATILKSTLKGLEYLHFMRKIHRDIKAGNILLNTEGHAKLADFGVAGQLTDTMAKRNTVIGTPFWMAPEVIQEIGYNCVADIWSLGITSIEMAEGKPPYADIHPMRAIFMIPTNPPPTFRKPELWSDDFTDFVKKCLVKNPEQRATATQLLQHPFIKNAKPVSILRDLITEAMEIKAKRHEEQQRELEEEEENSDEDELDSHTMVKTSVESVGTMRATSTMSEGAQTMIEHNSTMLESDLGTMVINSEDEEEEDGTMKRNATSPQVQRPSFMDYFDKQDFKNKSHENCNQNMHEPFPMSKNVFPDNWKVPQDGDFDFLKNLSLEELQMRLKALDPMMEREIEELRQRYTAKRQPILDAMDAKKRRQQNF
Chain of PKCβII(h) (P05771 1-673 isoform P05771-2): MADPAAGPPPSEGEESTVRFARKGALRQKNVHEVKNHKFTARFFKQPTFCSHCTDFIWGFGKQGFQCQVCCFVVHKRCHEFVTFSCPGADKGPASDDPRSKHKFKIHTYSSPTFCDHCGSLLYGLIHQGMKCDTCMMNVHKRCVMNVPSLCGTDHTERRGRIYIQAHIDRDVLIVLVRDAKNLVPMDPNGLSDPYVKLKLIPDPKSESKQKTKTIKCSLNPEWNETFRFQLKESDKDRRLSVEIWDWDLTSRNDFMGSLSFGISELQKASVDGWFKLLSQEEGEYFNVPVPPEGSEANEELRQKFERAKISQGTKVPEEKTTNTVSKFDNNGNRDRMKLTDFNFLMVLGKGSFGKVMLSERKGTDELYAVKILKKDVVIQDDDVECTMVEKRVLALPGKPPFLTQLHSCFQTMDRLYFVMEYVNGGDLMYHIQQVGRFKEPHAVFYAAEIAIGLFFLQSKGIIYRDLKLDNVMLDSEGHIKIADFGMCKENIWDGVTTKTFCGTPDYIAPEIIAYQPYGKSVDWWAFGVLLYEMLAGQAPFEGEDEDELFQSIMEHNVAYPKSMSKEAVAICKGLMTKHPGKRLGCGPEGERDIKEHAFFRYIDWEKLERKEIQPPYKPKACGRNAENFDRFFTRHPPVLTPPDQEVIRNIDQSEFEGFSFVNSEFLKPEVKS
Chain of EphA3(h) (P29320 21-983): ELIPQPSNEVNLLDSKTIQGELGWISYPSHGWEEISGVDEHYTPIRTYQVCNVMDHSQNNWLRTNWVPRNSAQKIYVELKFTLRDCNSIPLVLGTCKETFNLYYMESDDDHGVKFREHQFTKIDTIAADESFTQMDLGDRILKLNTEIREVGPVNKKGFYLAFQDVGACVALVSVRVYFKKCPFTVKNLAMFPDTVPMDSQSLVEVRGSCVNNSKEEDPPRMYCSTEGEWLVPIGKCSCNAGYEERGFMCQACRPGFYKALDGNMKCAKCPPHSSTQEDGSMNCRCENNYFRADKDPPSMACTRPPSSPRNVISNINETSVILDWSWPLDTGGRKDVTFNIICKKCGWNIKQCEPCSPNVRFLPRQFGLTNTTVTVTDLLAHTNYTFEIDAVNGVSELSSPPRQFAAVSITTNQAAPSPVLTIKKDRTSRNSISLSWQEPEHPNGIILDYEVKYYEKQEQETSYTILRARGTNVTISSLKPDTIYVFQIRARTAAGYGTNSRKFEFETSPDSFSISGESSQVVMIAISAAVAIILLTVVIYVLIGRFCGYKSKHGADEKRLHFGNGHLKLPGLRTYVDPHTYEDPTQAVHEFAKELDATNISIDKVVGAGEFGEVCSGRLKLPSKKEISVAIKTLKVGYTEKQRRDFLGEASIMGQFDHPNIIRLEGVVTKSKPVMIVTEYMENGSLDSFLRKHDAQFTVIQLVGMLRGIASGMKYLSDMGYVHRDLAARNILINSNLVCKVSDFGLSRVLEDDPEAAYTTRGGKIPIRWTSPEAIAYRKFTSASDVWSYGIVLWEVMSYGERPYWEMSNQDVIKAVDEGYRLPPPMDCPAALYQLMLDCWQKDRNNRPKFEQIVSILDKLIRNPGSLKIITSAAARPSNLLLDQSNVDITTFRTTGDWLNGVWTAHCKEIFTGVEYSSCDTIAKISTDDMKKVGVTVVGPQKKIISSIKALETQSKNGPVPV

On to `CN1CCCC1CCNC(=O)c1cn2c3c(c(N4CCC(c5cnccn5)C4)c(F)cc3c1=O)Oc1cc3ccccc3cc1-2` (stereo not drawn) [Compound A-1], for which the remaining activity at 2.5 µM at MST2(h) turned out to be 76%; on EphA3(h), 91%; at PKA(b), 99%; at Fes(h) it was 82%; at PKCβII(h), 94%. Further, the “interference with the nucleolin/QP ligand interaction” value at nucleolin/cMyc QP DNA is given as “interfered with the nucleolin/QP ligand interaction in a concentration dependent manner”.
`CC(=O)N1CCN(c2ccc3c(=O)c(C(=O)NCCN4CCCC4)c4n(C)c5ccccc5n4c3n2)CC1` [Compound B-1]: the remaining activity at 2.5 µM on MST2(h) was found to be 106%; on EphA3(h) it was 118%; at PKA(b) it was 96%; at Fes(h), 101%; on PKCβII(h), 99%. Besides, at nucleolin/cMyc QP DNA, the “interference with the nucleolin/QP ligand interaction” value is reported as “interfered with the nucleolin/QP ligand interaction in a concentration dependent manner”.
